Test results as given in patent US20120190814A1, “Thiol Protecting Group” (UCL BUSINESS PLC, priority 2009, published 2012).

Test system: GIRK currents
Assay: patch clamp assay, control treatment with Pertussis toxin or GIRK inhibitor
Assay type: cell-based, human
Settings: Tertiapin 100 nM, pertussis toxin 100 ng/ml overnight
Description: HEK 293 cells expressing HKIR3.1/3.2 channel and human somatostatin receptor 2 were treated with these compounds, and whole cell patch-clamp current recordings taken.
Whole cell patch-clamp current recordings were performed with an Axopatch 200B amplifier (Axon Instruments) using fire-polished pipettes with a resistance of 3-4 MΩ pulled from filamented borosilicated glass capillaries (Harvard Apparatus, 1.5 mm OD×1.17 mm ID). Data was acquired and analysed via a Digidata 1322A interface (Axon Instruments) and pCLAMP software (version 8.1, Axon Instruments). A fast perfusion system was used to apply somatostatin and analogues (Rapid Solution Changer, RSC-160, Bio-Logic France). Cells were clamped at −60 mV. The extracellular solution was (mM): NaCl 80, KCl 60, CaCl22, MgCl21, HEPES 10, NaH2PO4 0.33, glucose 10, pH 7.4; while the intracellular solution was (mM): K gluconate 110, KCl 20, NaCl 10, MgCl2 1, MgATP 2, EGTA 2 GTP 0.3, pH 7.4. After agonist application, current activated with a delay “lag” followed by a rapid rise to peak amplitude “time to peak”. After removal of the agonist, the current decays back to baseline. For each cell it was assessed if flow artifacts resulting from the pressure of drug application were present. This was done by applying bath solution from one of the sewer pipes at the beginning of the recordings. […]

| Substance | GIRK currents when cells were treated with control inhibitor |
| --- | --- |
| Pertussis toxin | currents were largely inhibited |
| Tertiapin Q | currents were largely inhibited |
